Earlier results as cited in patent EP3067353A1, “A PROCESS FOR THE PREPARATION OF SOLIFENACIN SALTS AND THEIR INCLUSION INTO PHARMACEUTICAL DOSAGE FORMS” (KRKA, D.D., Novo Mesto, priority 2008, dated 2010).
Structures can show the parent of a compound that is named as a salt.

What was measured:
[1] = relative humidity of 70% (room temperature)

With `O=C(O[C@H]1CN2CCC1CC2)N1CCc2ccccc2[C@@H]1c1ccccc1` [hydrochloride] as the compound, how does the hygroscopicity [1] read?
The hygroscopicity was “so hydroscopic as to deliquence”.

And the “impurities during long term storage” value?
Its value is “increase of impurities during long term storage”.
